Test results: patent US9708267B2, “Activators of human pyruvate kinase” (The United States of America, as represented by the …, priority 2010, dated 2017)
Where two headings read alike, the source gives them in different places.

Target: hPK, M2 (Homo sapiens, UniProt P14618)
Test: luminescent pyruvate kinase-luciferase coupled assay (qHTS)
Assay type: biochemical
Settings: for AC50: 0.1 mM ADP, 0.5 mM PEP; for activation at 57 µM: % activation at 57 μM of compound, read-out: hPK, M2 Max. Res.; for Emax: maximum response (activation), read-out: Max. Res.
Method: AC50 values were determined utilizing the luminescent pyruvate kinase-luciferase coupled assay (Inglese, J. et al, Quantitative high-throughput screening: a titration-based approach that efficiently identifies biological activities in large chemical libraries. Proc. Natl. Acad. Sci. U.S.A. 2006, 103, 11473-11478).
Luminescent Pyruvate Kinase-Luciferase Coupled Assay.
Production of a luminescent signal based on the generation of ATP by pyruvate kinase was determined by using the ATP-dependent enzyme firefly luciferase. Three μL of substrate mix (at r.t.) in assay buffer (50 mM imidazole pH 7.2, 50 mM KCl, 7 mM MgCl2, 0.01% tween 20, 0.05% BSA) was dispensed into Kalypsys (San Diego, Calif., USA) white solid bottom 1,536 well microtiter plates using a bottle-valve solenoid-based dispenser (Kalypsys). The final concentrations of substrates in the assay were 0.1 mM ADP and 0.5 mM PEP. Twenty-three nL of compound in DMSO were delivered with a 1,536-pin array tool, and 1 μL of enzyme mix in assay buffer (final concentration, 0.1 nM pyruvate kinase, 50 mM imidazole pH 7.2, 0.05% BSA, 4° C.) was added. Microtiter plates were incubated at r.t. for 1 hour and 2 uL of luciferase detection mix (Kinase-Glo from Promega, Madison, Wis., USA) at 4° C. protected from light, was added and luminescence was read with a ViewLux (Perkin Elmer, Waltham, Mass., USA) using a 2 second exposure/plate (with 2× binning). The final concentration of DMSO was 0.5% and found not to affect the assay signal.
Data was normalized for AC50 values to control columns containing uninhibited enzyme (n), and AC100 inhibition (i) according the following equation: Activation (%)=[(c−n)/(n−i)]*100 where c=compound, n=DMSO neutral, i=no enzyme control. A % activity of 100% is approximately a 2-fold increase over basal assay signal (% Activation by FBP was variable but averaged 100%). Monitoring of activation was accomplished using enzyme at 3× the final concentration.
All compounds were screened using a qHTS approach, where compounds are assayed using at least seven concentrations to generate concentration-response curves for every compounds. Briefly, qHTS uses an inter-plate dilution method where the first plate contains the highest concentration of a set of compounds in DMSO, while subsequent plates contain the same compounds in the same well locations, but at successive lower concentrations. Using the protocol outlined above, the rate was calculated as a plate throughput of 18 plates/hr or approximately 7 samples/sec on the Kalypsys robotic system which means that a 7 point CRC was obtained every second on the robotic system.

[1] = Table 3, mean of three replicate experiments, read-out: hPK, M2 AC50
[2] = Table 3, mean of three replicate experiments
[3] = Table 1, mean of three replicate experiments, read-out: hPK, M2 AC50
[4] = Table 1, mean of three replicate experiments
[5] = Table 2, mean of three replicate experiments, read-out: hPK, M2 AC50
[6] = Table 2, mean of three replicate experiments

Sequence of hPK, M2 (P14618 whole entry): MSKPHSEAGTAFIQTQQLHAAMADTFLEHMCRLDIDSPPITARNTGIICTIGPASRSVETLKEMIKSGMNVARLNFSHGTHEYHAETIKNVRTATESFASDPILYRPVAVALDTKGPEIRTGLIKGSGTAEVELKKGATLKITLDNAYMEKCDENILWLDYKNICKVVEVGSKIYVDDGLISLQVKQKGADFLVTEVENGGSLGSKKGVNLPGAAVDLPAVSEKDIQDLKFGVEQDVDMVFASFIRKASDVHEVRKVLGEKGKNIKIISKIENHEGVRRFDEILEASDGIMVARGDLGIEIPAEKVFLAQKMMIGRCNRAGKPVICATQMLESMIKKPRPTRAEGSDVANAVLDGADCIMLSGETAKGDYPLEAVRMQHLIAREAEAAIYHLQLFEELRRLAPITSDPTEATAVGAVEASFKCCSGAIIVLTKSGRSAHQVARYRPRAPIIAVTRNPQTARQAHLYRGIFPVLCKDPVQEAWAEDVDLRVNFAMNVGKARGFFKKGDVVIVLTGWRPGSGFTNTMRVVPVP

CNc1cc2c(cc1S(=O)(=O)Nc1ccc(C)c(C)c1)CCC(=O)N2 [Compound 33, N-(3,4-dimethylphenyl)-7-(methylamino)-2-oxo-1,2,3,4-tetrahydroquinoline-6-sulfonamide] gave an AC50 [1] of 0.16 µM and an activation at 57 µM [2] of 53%.
In the case of Cc1ccc(NS(=O)(=O)c2ccc3c(c2)n(C)c(=O)n3C)cc1C [Compound 10, N-(3,4-dimethylphenyl)-1,3-dimethyl-2-oxo-2,3-dihydro-1H-benzo[d]imidazole-5-sulfonamide], the AC50 [3] is reported as 1.8 µM and the activation at 57 µM [4] is reported as 100%.
With COc1ccccc1NS(=O)(=O)c1ccc2c(c1)CCC(=O)N2 [Compound 25, N-(2-methoxyphenyl)-2-oxo-1,2,3,4-tetrahydroquinoline-6-sulfonamide] the AC50 [5] was 21 µM and the activation at 57 µM [6] was 60%.
Cc1ccc(NS(=O)(=O)c2cc3c(cc2C)NC(=O)CO3)cc1C [Compound 39, N-(3,4-dimethylphenyl)-6-methyl-3-oxo-3,4-dihydro-2H-benzo[b][1,4]oxazine-7-sulfonamide] gave an AC50 [1] of 1.2 µM and an activation at 57 µM [2] of 106%.
Work on Cc1ccc(NS(=O)(=O)c2cc3c(cc2NC(C)CO)NC(=O)CC3)cc1C (stereo not drawn) [Compound 67, N-(3,4-dimethylphenyl)-7-(1-hydroxypropan-2-ylamino)-2-oxo-1,2,3,4-tetrahydroquinoline-6-sulfonamide] yielded an AC50 (Table 4, read-out: AC50) of 0.11 µM and an Emax (Table 4) of 110%.
In the case of Cc1ccc(NS(=O)(=O)c2cc3c(cc2NCCO)NC(=O)CC3)cc1C [Compound 70, N-(3,4-dimethylphenyl)-7-(2-hydroxyethylamino)-2-oxo-1,2,3,4-tetrahydroquinoline-6-su 1 fonamide], the AC50 (Table 4, read-out: AC50) is reported as 0.09 µM and the Emax (Table 4) is reported as 111%.
Cc1ccc(NS(=O)(=O)c2cc3c(cc2NC(C)C)NC(=O)CC3)cc1C [Compound 65, N-(3,4-dimethylphenyl)-7-(isopropylamino)-2-oxo-1,2,3,4-tetrahydroquinoline-6-sulfonamide] was tested, and the AC50 (Table 4, read-out: AC50) was 0.32 µM and the Emax (Table 4) was 106%.
Cc1ccc(NS(=O)(=O)c2ccc3[nH]c(=O)[nH]c3c2)cc1C [Compound 9, N-(3,4-dimethylphenyl)-2-oxo-2,3-dihydro-1H-benzo[d]imidazole-5-sulfonamide] was tested, and the AC50 [3] was 21 µM and the activation at 57 µM [4] was 59%.
Compound Cc1ccc(NS(=O)(=O)c2cc3c(cc2N(C)C)CCC(=O)N3)cc1C [Compound 36, 6-(dimethylamino)-N-(3,4-dimethylphenyl)-2-oxo-1,2,3,4-tetrahydroquinoline-7-sulfonamide] has an AC50 [1] of 0.46 µM and an activation at 57 µM [2] of 110%.
In the case of Cc1cccc(NS(=O)(=O)c2ccc3c(c2)CCC(=O)N3)c1 [Compound 14, 2-oxo-N-m-tolyl-1,2,3,4-tetrahydroquinoline-6-sulfonamide], the AC50 [5] is reported as 1.2 µM and the activation at 57 µM [6] is reported as 99%.
For Cc1ccc(NS(=O)(=O)c2cc3c(cc2N[C@@H](C)CO)NC(=O)CC3)cc1Cl [Compound 71, (S)—N-(3-chloro-4-methylphenyl)-7-(l-hydroxypropan-2-ylamino)-2-oxo-1,2,3,4-tetrahydroquinoline-6-sulfonamide], the AC50 (Table 4, read-out: AC50) was 0.08 µM and the Emax (Table 4) was 124%.
Cc1cc(NS(=O)(=O)c2ccc3c(c2)CCC(=O)N3)ccc1F [Compound 53, N-(4-fluoro-3-methylphenyl)-2-oxo-1,2,3,4-tetrahydroquinoline-6-sulfonamide] gave an AC50 (Table 4, read-out: AC50) of 0.37 µM and an Emax (Table 4) of 121%.
Cc1ccc(NS(=O)(=O)c2ccc3c(c2)CCC(=O)N3)cc1 [Compound 21, 2-oxo-N-p-tolyl-1,2,3,4-tetrahydroquinoline-6-sulfonamide] gave an AC50 [5] of 4.1 µM and an activation at 57 µM [6] of 110%.
For Cc1cc(NS(=O)(=O)c2ccc3c(c2)CCC(=O)N3)ccc1Cl [Compound 58, N-(4-chloro-3-methylphenyl)-2-oxo-1,2,3,4-tetrahydroquinoline-6-sulfonamide], the AC50 (Table 4, read-out: AC50) was 0.41 µM and the Emax (Table 4) was 96.5%.
O=C1CCc2cc(S(=O)(=O)NCc3ccccc3)ccc2N1 [Compound 30, N-benzyl-2-oxo-1,2,3,4-tetrahydroquinoline-6-sulfonamide] was tested, and the AC50 [5] was 14 µM and the activation at 57 µM [6] was 25%.
In the case of O=C1CCc2cc(S(=O)(=O)Nc3ccccc3F)ccc2N1 [Compound 26, N-(2-fluorophenyl)-2-oxo-1,2,3,4-tetrahydroquinoline-6-sulfonamide], the AC50 [5] is reported as 7.3 µM and the activation at 57 µM [6] is reported as 85%.
CCN(CC)c1cc2c(cc1S(=O)(=O)Nc1ccc(C)c(C)c1)CCC(=O)N2 [Compound 66, 7-(diethylamino)-N-(3,4-dimethylphenyl)-2-oxo-1,2,3,4-tetrahydroquinoline-6-sulfonamide] showed an AC50 (Table 4, read-out: AC50) of 7.24 µM and an Emax (Table 4) of 111%.
With Cc1ccc(NS(=O)(=O)c2cc3c(cc2N(C)C)NC(=O)CC3)cc1C [Compound 32, 7-(dimethylamino)-N-(3,4-dimethylphenyl)-2-oxo-1,2,3,4-tetrahydroquinoline-6-sulfonamide] the AC50 [1] was 0.52 µM and the activation at 57 µM [2] was 106%.
In the case of O=C1CCc2cc(S(=O)(=O)Nc3cccc(C(F)(F)F)c3)ccc2N1 [Compound 17, 2-oxo-N-(3-(trifluoromethyl)phenyl)-1,2,3,4-tetrahydroquinoline-6-sulfonamide], the AC50 [5] is reported as 13 µM and the activation at 57 µM [6] is reported as 96%.
O=C1CCc2cc(S(=O)(=O)Nc3ccc(Cl)c(Cl)c3)ccc2N1 [Compound 44, N-(3,4-dichlorophenyl)-2-oxo-1,2,3,4-tetrahydroquinoline-6-sulfonamide] was tested, and the AC50 (Table 4, read-out: AC50) was 2.59 µM and the Emax (Table 4) was 126%.
For Cc1cc(NS(=O)(=O)c2cc3c(cc2F)NC(=O)CC3)ccc1Cl [Compound 56, N-(4-chloro-3-methylphenyl)-7-fluoro-2-oxo-1,2,3,4-tetrahydroquinoline-6-sulfonamide], the AC50 (Table 4, read-out: AC50) was 0.82 µM and the Emax (Table 4) was 94.2%.
Cc1ccc(NS(=O)(=O)c2ccc3c(c2)C(Cl)(Cl)C(=O)N3)cc1C [Compound 60, 3,3-dichloro-N-(3,4-dimethylphenyl)-2-oxoindoline-5-sulfonamide] gave an AC50 (Table 4, read-out: AC50) of 10.3 µM and an Emax (Table 4) of 117%.
Cc1ccc(NS(=O)(=O)c2cc3c(cc2F)NC(=O)CC3)cc1C [Compound 31, N-(3,4-dimethylphenyl)-7-fluoro-2-oxo-1,2,3,4-tetrahydroquinoline-6-sulfonamide] was tested, and the AC50 [1] was 0.92 µM and the activation at 57 µM [2] was 115%.
O=C1CCc2cc(S(=O)(=O)Nc3cccc(-c4ccccc4)c3)ccc2N1 [Compound 18, N-(biphenyl-3-yl)-2-oxo-1,2,3,4-tetrahydroquinoline-6-sulfonamide] showed an AC50 [5] of 14 µM and an activation at 57 µM [6] of 13%.
Compound N#Cc1cccc(NS(=O)(=O)c2ccc3c(c2)CCC(=O)N3)c1 [Compound 46, N-(3-cyanophenyl)-2-oxo-1,2,3,4-tetrahydroquinoline-6-sulfonamide] has an AC50 (Table 4, read-out: AC50) of 9.19 µM and an Emax (Table 4) of 97%.
With Cc1ccc(NS(=O)(=O)c2cc3c(cc2-c2ccccc2)NC(=O)CO3)cc1C [Compound 40, N-(3,4-dimethylphenyl)-3-oxo-6-phenyl-3,4-dihydro-2H-benzo[b][1,4]oxazine-7-sulfonamide] the AC50 [1] was 20.6 µM and the activation at 57 µM [2] was 36%.
For Cc1ccc(NS(=O)(=O)c2ccc3c(c2)CC(=O)N3)cc1C [Compound 5, N-(3,4-dimethylphenyl)-2-oxoindoline-5-sulfonamide], the AC50 [3] was 14.5 µM and the activation at 57 µM [4] was 130%.
O=C1CCc2cc(S(=O)(=O)Nc3ccc(Cl)c(Cl)c3)c(F)cc2N1 [Compound 54, N-(3,4-dichlorophenyl)-7-fluoro-2-oxo-1,2,3,4-tetrahydroquinoline-6-sulfonamide] showed an AC50 (Table 4, read-out: AC50) of 3.66 µM and an Emax (Table 4) of 109%.
Work on O=C1CCc2cc(S(=O)(=O)Nc3cccnc3)ccc2N1 [Compound 19, 2-oxo-N-(pyridin-3-yl)-1,2,3,4-tetrahydroquinoline-6-sulfonamide] yielded an AC50 [5] of 23 µM and an activation at 57 µM [6] of 36%.
Cc1ccc(NS(=O)(=O)c2ccc3c(c2)NC(=O)CO3)cc1C [Compound 7, N-(3,4-dimethylphenyl)-3-oxo-3,4-dihydro-2H-benzo[b][1,4]oxazine-6-sulfonamide] gave an AC50 [3] of 20 µM and an activation at 57 µM [4] of 93%.
